Test results reported in ChEMBL document CHEMBL5029167, “Development of Asialoglycoprotein-Mediated Hepatocyte-Targeting Antitumor Prodrugs Triggered by Glutathione” (J Med Chem, 2021).
The source made the active and inactive calls. The rule behind the calls is not given here.

Tests used:
[1] = Stability of compound in GSH measured upto 24 hrs; assay type: physicochemical; settings: GSH (glutathione), read-out: Stability
HepG2 [2] = experiment: Inhibition of colony formation in human HepG2 cells after 7 days by crystal violet staining based inverted microscopic analysis; assay type: functional, cell-based; settings: time 7.0 day
HepG2 [3] = experiment: Induction of apoptosis in human HepG2 cells assessed as viable cells at 6 uM measured after 24 hrs by annexinV-FITC/propidium iodide double staining based flow cytometric analysis (reference value: 93.6 %); assay type: functional; settings: read-out: Activity
HepG2 [4] = experiment: Induction of apoptosis in human HepG2 cells assessed as early apoptotic cells at 6 uM measured after 24 hrs by annexinV-FITC/propidium iodide double staining based flow cytometric analysis (reference value: 6.3 %); assay type: functional
HepG2 [5] = experiment: Induction of apoptosis in human HepG2 cells assessed as late apoptotic cells at 6 uM measured after 24 hrs by annexinV-FITC/propidium iodide double staining based flow cytometric analysis (reference value: 0.1 %); assay type: functional
HepG2 [6] = experiment: Induction of apoptosis in human HepG2 cells assessed as viable cells at 9 uM measured after 24 hrs by annexinV-FITC/propidium iodide double staining based flow cytometric analysis (reference value: 93.6 %); assay type: functional; settings: read-out: Activity
HepG2 [7] = experiment: Induction of apoptosis in human HepG2 cells assessed as early apoptotic cells at 9 uM measured after 24 hrs by annexinV-FITC/propidium iodide double staining based flow cytometric analysis (reference value: 6.3 %); assay type: functional
HepG2 [8] = experiment: Induction of apoptosis in human HepG2 cells assessed as late apoptotic cells at 9 uM measured after 24 hrs by annexinV-FITC/propidium iodide double staining based flow cytometric analysis (reference value: 0.1 %); assay type: functional
HepG2 [9] = experiment: Induction of apoptosis in human HepG2 cells assessed as viable cells at 12 uM measured after 24 hrs by annexinV-FITC/propidium iodide double staining based flow cytometric analysis (reference value: 93.6 %); assay type: functional; settings: read-out: Activity
HepG2 [10] = experiment: Induction of apoptosis in human HepG2 cells assessed as early apoptotic cells at 12 uM measured after 24 hrs by annexinV-FITC/propidium iodide double staining based flow cytometric analysis (reference value: 6.3 %); assay type: functional
HepG2 [11] = experiment: Induction of apoptosis in human HepG2 cells assessed as late apoptotic cells at 12 uM measured after 24 hrs by annexinV-FITC/propidium iodide double staining based flow cytometric analysis (reference value: 0.1 %); assay type: functional
HepG2 [12] = experiment: Cell cycle arrest in human HepG2 cells assessed as accumulation at G0/G1 phase at 2 uM measured after 24 hrs by propidium iodide staining based flow cytometric analysis (reference value: 55.27%); assay type: functional
HepG2 [13] = experiment: Cell cycle arrest in human HepG2 cells assessed as accumulation at S phase at 2 uM measured after 24 hrs by propidium iodide staining based flow cytometric analysis (reference value: 37.10%); assay type: functional
HepG2 [14] = experiment: Cell cycle arrest in human HepG2 cells assessed as accumulation at G2/M phase at 2 uM measured after 24 hrs by propidium iodide staining based flow cytometric analysis (reference value: 7.63%); assay type: functional
HepG2 [15] = experiment: Cell cycle arrest in human HepG2 cells assessed as accumulation at G0/G1 phase at 4 uM measured after 24 hrs by propidium iodide staining based flow cytometric analysis (reference value: 55.27%); assay type: functional
HepG2 [16] = experiment: Cell cycle arrest in human HepG2 cells assessed as accumulation at S phase at 4 uM measured after 24 hrs by propidium iodide staining based flow cytometric analysis (reference value: 37.10%); assay type: functional
HepG2 [17] = experiment: Cell cycle arrest in human HepG2 cells assessed as accumulation at G2/M phase at 4 uM measured after 24 hrs by propidium iodide staining based flow cytometric analysis (reference value: 7.63%); assay type: functional
HepG2 [18] = experiment: Cell cycle arrest in human HepG2 cells assessed as accumulation at G0/G1 phase at 8 uM measured after 24 hrs by propidium iodide staining based flow cytometric analysis (reference value: 55.27%); assay type: functional
HepG2 [19] = experiment: Cell cycle arrest in human HepG2 cells assessed as accumulation at S phase at 8 uM measured after 24 hrs by propidium iodide staining based flow cytometric analysis (reference value: 37.10%); assay type: functional
HepG2 [20] = experiment: Cell cycle arrest in human HepG2 cells assessed as accumulation at G2/M phase at 8 uM measured after 24 hrs by propidium iodide staining based flow cytometric analysis (reference value: 7.63%); assay type: functional
HepG2 [21] = experiment: Cytotoxicity against human HepG2 cells at 2 to 10 uM after 48 hrs by MTT assay; assay type: functional, cell-based; settings: HepG2, 48 h
[22] = Drug uptake in human A549 cells at 10 uM after 15 mins by confocal scanning microscopic analysis; assay type: ADME, cell-based; settings: a549, 0.25 h
[23] = Drug uptake in human HeLa cells at 10 uM after 15 mins by confocal scanning microscopic analysis; assay type: ADME, cell-based; settings: 0.25 h
[24] = Drug uptake in human SGC-7901 cells at 10 uM after 15 mins by confocal scanning microscopic analysis; assay type: ADME, cell-based; settings: sgc-7901, 0.25 h
[25] = Drug uptake in human HepG2 cells at 10 uM after 15 mins by confocal scanning microscopic analysis; assay type: ADME, cell-based; settings: hepg2, 0.25 h
[26] = Drug distribution in Kunming mouse heart at 3.5 mg/kg, iv measured after 3 hrs by confocal scanning microscopic analysis; assay type: ADME, organism-based; settings: in vivo
[27] = Drug distribution in Kunming mouse lung at 3.5 mg/kg, iv measured after 3 hrs by confocal scanning microscopic analysis; assay type: ADME, organism-based; settings: in vivo
[28] = Drug distribution in Kunming mouse spleen at 3.5 mg/kg, iv measured after 3 hrs by confocal scanning microscopic analysis; assay type: ADME, organism-based; settings: in vivo
[29] = Drug distribution in Kunming mouse kidney at 3.5 mg/kg, iv measured after 3 hrs by confocal scanning microscopic analysis; assay type: ADME, organism-based; settings: in vivo
[30] = Drug distribution in Kunming mouse liver at 3.5 mg/kg, iv measured after 3 hrs by confocal scanning microscopic analysis; assay type: ADME, organism-based; settings: in vivo
HepG2 [31] = experiment: Inhibition of cell migration in human HepG2 cells after 24 hrs by crystal violet staining based inverted microscopic analysis; assay type: functional
HepG2 [32] = experiment: Induction of morphological changes in human HepG2 cells assessed as chromatin condensation incubated for 24 hrs by Hoechst 33342 staining based analysis; assay type: functional, cell-based
HepG2 [33] = experiment: Induction of morphological changes in human HepG2 cells assessed as chromatin fragmentation incubated for 24 hrs by Hoechst 33342 staining based analysis; assay type: functional, cell-based
HepG2 [34] = experiment: Induction of apoptosis in human HepG2 cells assessed as necrotic cells at 6 uM measured after 24 hrs by annexinV-FITC/propidium iodide double staining based flow cytometric analysis (reference value: 0.0 %); assay type: functional
HepG2 [35] = experiment: Induction of apoptosis in human HepG2 cells assessed as necrotic cells at 9 uM measured after 24 hrs by annexinV-FITC/propidium iodide double staining based flow cytometric analysis (reference value: 0.0 %); assay type: functional
HepG2 [36] = experiment: Induction of apoptosis in human HepG2 cells assessed as necrotic cells at 12 uM measured after 24 hrs by annexinV-FITC/propidium iodide double staining based flow cytometric analysis (reference value: 0.0 %); assay type: functional
HepG2 [37] = experiment: Induction of apoptosis in human HepG2 cells assessed as upregulation of caspase 3 protein expression at 2 to 8 uM after 24 hrs; assay type: functional, cell-based; settings: dose 2-8 µM
H22 [38] = experiment: Antitumor activity against mouse H22 cells implanted in Kunming mouse assessed as tumor growth inhibition at 3.5 mg/kg measured on day 7; assay type: functional; design: scale not given: the % may be the effect or the level left; settings: time 7 day
[39] = Toxicity in Kunming mouse implanted with mouse H22 cells assessed as change in body weight at 3.5 mg/kg after 7 days; assay type: organism-based; settings: in vivo, 168 h, time 7 day
[40] = Toxicity in Kunming mouse implanted with mouse H22 cells assessed as change in organ weight at 3.5 mg/kg after 7 days; assay type: organism-based; settings: in vivo, 168 h, time 7 day
H22 [41] = experiment: Antitumor activity against mouse H22 cells implanted in Kunming mouse assessed as tumor growth inhibition at 0.8 mg/kg measured on day 7; assay type: functional; design: scale not given: the % may be the effect or the level left; settings: time 7 day
[42] = Toxicity in Kunming mouse implanted with mouse H22 cells assessed as change in body weight at 0.8 mg/kg after 7 days; assay type: organism-based; settings: in vivo, 168 h, time 7 day
[43] = Toxicity in Kunming mouse implanted with mouse H22 cells assessed as change in organ weight at 0.8 mg/kg after 7 days; assay type: organism-based; settings: in vivo, 168 h, time 7 day

Compound: C=C[C@]1(C)CC[C@@H](C(=C)Cn2cc(CN3C(=O)c4cccc5c(N6CCN(C(=O)OCCCCCCOCc7cn([C@@H]8O[C@H](CO)[C@H](O)[C@H](O)[C@H]8O)nn7)CC6)ccc(c45)C3=O)nn2)C[C@H]1C(=C)C
- remaining at 24 h [1]: 99%

Compound: C=C[C@]1(C)CC[C@@H](C(=C)Cn2cc(CN3C(=O)c4cccc5c(N6CCNCC6)ccc(c45)C3=O)nn2)C[C@H]1C(=C)C
- inhibition (HepG2 [2]): Dose-Dependent Effect
- viability at 6 µM (HepG2 [3]): 51.5%
- Activity (HepG2 [4]): 46.5%
- Activity (HepG2 [5]): 1.9%
- viability at 9 µM (HepG2 [6]): 9.7%
- Activity (HepG2 [7]): 89.4%
- Activity (HepG2 [8]): 0.9%
- viability at 12 µM (HepG2 [9]): 4.7%
- Activity (HepG2 [10]): 94.9%
- Activity (HepG2 [11]): 0.3%
- Activity (HepG2 [12]): 63.46%
- Activity (HepG2 [13]): 29.93%
- Activity (HepG2 [14]): 6.61%
- Activity (HepG2 [15]): 64.24%
- Activity (HepG2 [16]): 30.47%
- Activity (HepG2 [17]): 5.29%
- Activity (HepG2 [18]): 71.44%
- Activity (HepG2 [19]): 21.81%
- Activity (HepG2 [20]): 67.4%
- IC50 (HepG2 [21]): 6.11 µM
- Drug uptake [22]: Not Active
- Drug uptake [23]: Not Active
- Drug uptake [24]: Not Active
- Drug uptake [25]: Not Active
- Drug uptake [26]: Not Active
- Drug uptake [27]: Not Active
- Drug uptake [28]: Not Active
- Drug uptake [29]: Not Active
- Drug uptake [30]: Not Active
- inhibition (HepG2 [31]): Dose-Dependent Effect
- Activity (HepG2 [32]): Active
- Activity (HepG2 [33]): Active
- Activity (HepG2 [34]): 0%
- Activity (HepG2 [35]): 0%
- Activity (HepG2 [36]): 0%
- Activity (HepG2 [37]): Active
- Activity (H22 [38]): 33.65%
- Activity [39]: Non-Toxic
- Activity [40]: Non-Toxic

Compound: O=c1[nH]cc(F)c(=O)[nH]1 [FLUOROURACIL]
- Activity (H22 [41]): 26.41%
- Activity [42]: Non-Toxic
- Activity [43]: Non-Toxic
